biological target: T1, purified full-length human recombinant aggrecanase-1 (rAgg1) (Homo sapiens, UniProt O75173); assay: Aggrecanase-1 FRET Assay; type: biochemical; conditions: not given
T1 construct: purified full-length human recombinant aggrecanase-1
T1 sequence (O75173 213-837): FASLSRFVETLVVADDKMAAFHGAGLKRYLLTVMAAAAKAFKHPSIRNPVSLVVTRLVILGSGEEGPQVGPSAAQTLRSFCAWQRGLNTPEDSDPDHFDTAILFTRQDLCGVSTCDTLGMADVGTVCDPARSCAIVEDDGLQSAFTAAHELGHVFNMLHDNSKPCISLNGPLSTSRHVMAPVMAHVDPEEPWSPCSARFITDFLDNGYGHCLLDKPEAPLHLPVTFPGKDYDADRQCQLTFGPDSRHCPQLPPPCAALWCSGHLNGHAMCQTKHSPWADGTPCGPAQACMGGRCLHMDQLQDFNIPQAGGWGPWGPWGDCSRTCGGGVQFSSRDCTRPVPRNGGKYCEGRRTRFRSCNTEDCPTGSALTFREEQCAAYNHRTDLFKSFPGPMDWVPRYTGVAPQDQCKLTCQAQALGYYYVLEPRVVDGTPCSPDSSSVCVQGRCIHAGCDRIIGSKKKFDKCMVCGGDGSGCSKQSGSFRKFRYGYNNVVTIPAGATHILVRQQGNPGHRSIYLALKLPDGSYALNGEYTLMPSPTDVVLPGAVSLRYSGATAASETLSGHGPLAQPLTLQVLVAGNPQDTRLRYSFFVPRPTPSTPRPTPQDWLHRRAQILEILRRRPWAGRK

| Structure (SMILES) | IC50 [µM] |
| --- | --- |
| CC(C)[C@@H](NS(=O)(=O)c1ccc(-c2ccc(OC(=O)Nc3ccc(F)cc3)cc2)cc1)C(=O)O [Example 6A, 2-[4′-(4-Fluoro-phenylcarbamoyloxy)-biphenyl-4-sulfonylamino]-3-methyl-butyric acid] | 3.6 |
| CC(C)[C@@H](NS(=O)(=O)c1ccc(-c2ccc(OC(=O)Nc3cc4ccccc4o3)cc2)cc1)C(=O)O [Example 6S, N-[(4′-{[(1-benzofuran-2-ylamino)carbonyl]oxy}-1,1′-biphenyl-4-yl)sulfonyl]-D-valine] | 4.5 |
| CC(C)[C@@H](NS(=O)(=O)c1ccc(-c2ccc(OC(=O)Nc3ccc4ccccc4c3)cc2)cc1)C(=O)O [Example 6C, D-3-Methyl-2-[4′-(naphthalen-2-ylcarbamoyloxy)-biphenyl-4-sulfonylamino]-butyric acid] | 1.1 |
| CC(C)[C@@H](NS(=O)(=O)c1ccc(-c2ccc(OC(=O)Nc3ccc(Oc4ccccc4)cc3)cc2)cc1)C(=O)O [Example 6B, D-3-Methyl-2-[4′-(4-phenoxy-phenylcarbamoyloxy)-biphenyl-4-sulfonylamino]-butyric acid] | 0.6 |

same assay, conditions: rAgg1 5 μg/ml, substrate Abz-[…]-Dap(Dnp) 25 μM, 30° C., pH 7.5; read-out: IC50

| Structure (SMILES) | IC50 [µM] |
| --- | --- |
| COc1cc(COc2ccc(-c3ccc(S(=O)(=O)N[C@@H](C(=O)O)C(C)C)cc3)cc2OC)cc(OC)c1 [Example 11B, 2-[4′-(3,5-Dimethoxy-benzyloxy)-3′-methoxy-biphenyl-4-sulfonylamino]-3-methyl-butyric acid] | 16.7 |
| Cc1c(COc2ccc(-c3ccc(S(=O)(=O)N[C@@H](C(=O)O)C(C)C)cc3)cc2)oc2ccccc12 [Example 2A, D-3-Methyl-2-[4′-(3-methyl-benzofuran-2-ylmethoxy)-biphenyl-4-sulfonylamino]-butyric acid] | 1 |
| CC(C)[C@@H](NS(=O)(=O)c1ccc(-c2ccc(OC(=O)c3cc4ccccc4o3)cc2)cc1)C(=O)O [Example 7B, Benzofuran-2-carboxylic acid 4′-(1-carboxy-2-methyl-propylsulfamoyl)-biphenyl-4-yl ester] | 0.345 |
| CC(C)[C@@H](NS(=O)(=O)c1ccc(-c2ccc(OCc3cc4ccccc4o3)cc2)cc1)C(=O)O [Example 2B, D-2-[4′-(Benzofuran-2-ylmethoxy)-biphenyl-4-sulfonylamino]-3-methyl-butyric acid] | 1.5 |
| CC(C)[C@@H](NS(=O)(=O)c1ccc(-c2ccc(OCc3ccc4ccccc4c3)cc2)cc1)C(=O)O [Example 2C, D-3-Methyl-2-[4′-(naphthalen-2-ylmethoxy)-biphenyl-4-sulfonylamino]-butyric acid] | 0.8 |
| CC(C)[C@@H](NS(=O)(=O)c1ccc(-c2ccc(COc3nc4ccccc4s3)cc2)cc1)C(=O)O [Example 1F, 2-[4′-(Benzothiazol-2-yloxymethyl)-biphenyl-4-sulfonylamino]-3-methyl-butyric acid] | 1.5 |
| COc1cc(-c2ccc(S(=O)(=O)N[C@@H](C(=O)O)C(C)C)cc2)ccc1OCc1ccc2ccccc2c1 [Example 11A, 3-Methyl-2-[4′-(naphthalen-2-ylmethoxy)-3′-methoxy-biphenyl-4-sulfonylamino]-butyric acid] | 8.9 |
| CC(C)[C@@H](NS(=O)(=O)c1ccc(-c2ccc(COc3ccc(C(F)(F)F)cn3)cc2)cc1)C(=O)O [Example 1B, 3-Methyl-2-[4-(5-trifluoromethyl-pyridin-2-yloxymethyl)-biphenyl-4-sulfonylamino]-butyric acid] | 0.8 |
| CC(C)[C@@H](NS(=O)(=O)c1ccc(-c2ccc(O)cc2)cc1C(F)(F)F)C(=O)O [Example 12B, 2-(4′-Hydroxy-3-trifluoromethyl-biphenyl-4-sulfonylamino)-3-methyl-butyric acid] | 67 |
| CC(C)[C@@H](NS(=O)(=O)c1ccc(-c2ccc(OCc3ccccc3)cc2)cc1)C(=O)O [Example 2D, D-2-(4′-Benzyloxy-biphenyl-4-sulfonylamino)-3-methyl-butyric acid] | 5.5 |
| CC(C)[C@@H](NS(=O)(=O)c1ccc(-c2ccc(O)cc2)cc1OC(F)(F)F)C(=O)O [Example 12A, 2-(4′-Hydroxy-3-trifluoromethoxy-biphenyl-4-sulfonylamino)-3-methyl-butyric acid] | 200 |

Other lines, results leading:

| IC50 [µM] | Structure (SMILES) |
| --- | --- |
| 0.09 | Cc1c(C(=O)Oc2ccc(-c3ccc(S(=O)(=O)N[C@@H](C(=O)O)C(C)C)cc3)cc2)oc2ccccc12 [Example 7A, D-3-Methyl-benzofuran-2-carboxylic acid 4′-(1-carboxy-2-methyl-propylsulfamoyl)-biphenyl-4-yl ester] |
| 0.6 | CC(C)[C@@H](NS(=O)(=O)c1ccc(-c2ccc(COc3ccc4ccccc4n3)cc2)cc1)C(=O)O [Example 1E] |
| 0.4 | Cc1cc(OCc2ccc(-c3ccc(S(=O)(=O)N[C@@H](C(=O)O)C(C)C)cc3)cc2)c2ccccc2n1 [Example 1D, D-3-Methyl-2-[4′-(2-methyl-quinolin-4-yloxymethyl)-biphenyl-4-sulfonylamino]-butyric acid] |
| 0.2 | Cc1cc2ccccc2nc1OCc1ccc(-c2ccc(S(=O)(=O)N[C@@H](C(=O)O)C(C)C)cc2)cc1 [Example 1A, 3-Methyl-2-[4′-(3-methyl-quinolin-2-yloxymethyl)-biphenyl-4-sulfonylamino]-butyric acid] |
| 0.4 | CC(=O)NCc1ccc(-c2ccc(S(=O)(=O)N[C@@H](C(=O)O)C(C)C)cc2)cc1 [Example 5A, D-2-[4′-(Acetylamino-methyl)-biphenyl-4-sulfonylamino]-3-methyl-butyric acid] |
| 0.5 | Cc1cc(COc2ccc(-c3ccc(S(=O)(=O)N[C@@H](C(=O)O)C(C)C)cc3)cc2)c2ccccc2n1 [Example 2K, D-3-Methyl-2-[4′-(2-methyl-quinolin-4-ylmethoxy)-biphenyl-4-sulfonylamino]-butyric acid] |
| 0.23 | CC(C)[C@@H](NS(=O)(=O)c1ccc(-c2ccc(COc3cccc(C(=O)c4ccccc4)c3)cc2)cc1)C(=O)O [Example 1H] |
